Columns and labels:
[1] = test system: HBV replication in HepAD38 cells; test: Anti-HBV replication assay in HepAD38 cells (QPCR of extracellular HBV DNA); format: cell-based, HBV (genotype D, serotype ayw); conditions: Hepatitis B virus, 168 h, 7 days incubation, extracellular HBV DNA by QPCR, read-out: Anti-HBV EC50
Method in brief: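 EC50 values reflect 50% reduction of extracellular HBV DNA, measured by QPCR after 7-day treatment of tetracycline-deprived HepAD38 cells with compound […].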

[2] = In vitro cytotoxicity assay (MTT cell viability) in HepG2 cells; format: cell-based, human; conditions: human
Method in brief: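 CC50 values reflect loss of HepG2 viability after a 7-day exposure at 37 °C, 5% CO2. After 3-4 h with MTT, solubilized formazan was quantified at 492 nm relative to vehicle wells.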

| SMILES | EC50 [1] [µM] | CC50 at 7 days [2] [µM] |
| --- | --- | --- |
| Cc1cc(NC(=O)c2cc(C(=O)C(=O)NC(C)(C)CO)n3c2CCCC3)cc(F)c1F [Example 425, N-(3,4-difluoro-5-methylphenyl)-3-(2-((1-hydroxy-2-methylpropan-2-yl)amino)-2-oxoacetyl)-5,6,7,8-tetrahydroindolizine-1-carboxamide] | 0.05 to 0.499 | > 30 |
| Cc1cc(NC(=O)c2c(C)c(C(=O)C(=O)NC3(C)CCN(c4cnccn4)CC3)n(C)c2C)ccc1F [Example 715, N-(4-fluoro-3-methylphenyl)-1,2,4-trimethyl-5-(2-((4-methyl-1-(pyrazin-2-yl)piperidin-4-yl)amino)-2-oxoacetyl)-1H-pyrrole-3-carboxamide] | < 0.05 | 5 to 30 |
| Cc1cc(NC(=O)c2c(C)c(C(=O)C(=O)NC3(C)CCN(C(=O)c4cn[nH]c4)CC3)n(C)c2C)ccc1F [Example 709, N-(4-fluoro-3-methylphenyl)-1,2,4-trimethyl-5-(2-((4-methyl-1-(1H-pyrazole-4-carbonyl)piperidin-4-yl)amino)-2-oxoacetyl)-1H-pyrrole-3-carboxamide] | < 0.05 | > 30 |
| Cc1noc(C(C)NC(=O)C(=O)c2cc(C(=O)Nc3ccc(F)c(C)c3)c3n2CCCC3)n1 (stereo not shown) [Example 414, N-(4-fluoro-3-methylphenyl)-3-(2-((1-(3-cmethyl-1,2,4-oxadiazol-5-yl)ethyl)amino)-2-oxoacetyl)-5,6,7,8-tetrahydroindolizine-1-carboxamide] | 0.05 to 0.499 | > 30 |
| CC(C)(CO)NC(=O)C(=O)c1cc(C(=O)Nc2ccc(F)c(C(F)F)c2)c2n1CCCC2 [Example 429, N-(3-(difluoromethyl)-4-fluorophenyl)-3-(2-((1-hydroxy-2-methylpropan-2-yl)amino)-2-oxoacetyl)-5,6,7,8-tetrahydroindolizine-1-carboxamide] | 0.05 to 0.499 | > 30 |
| CC(C)(O)CNC(=O)C(=O)c1c(Cl)c(C(=O)Nc2ccc(F)c(Cl)c2)c2n1CCCC2 [Example 532, 2-chloro-N-(3-chloro-4-fluorophenyl)-3-(2-((2-hydroxy-2-methylpropyl)amino)-2-oxoacetyl)-5,6,7,8-tetrahydroindolizine-1-carboxamide] | 0.5 to 1 | 0.5 to 4.99 |
| Cc1noc([C@H](NC(=O)C(=O)c2c(Cl)c(C(=O)Nc3ccc(F)c(C)c3)c3n2CCC3)C(C)C)n1 [Example 544, (R)-6-chloro-N-(4-fluoro-3-methylphenyl)-5-(2-((2-methyl-1-(3-methyl-1,2,4-oxadiazol-5-yl)propyl)amino)-2-oxoacetyl)-2,3-dihydro-1H-pyrrolizine-7-carboxamide] | < 0.05 | > 30 |
| Cc1cc(NC(=O)c2c(C)c(C(=O)C(=O)N[C@H]3COC[C@@H]3O)n(CCF)c2C)ccc1F [Example 130, N-(4-fluoro-3-methylphenyl)-1-(2-fluoroethyl)-5-(2-(((3S,4R)-4-hydroxytetrahydrofuran-3-yl)amino)-2-oxoacetyl)-2,4-dimethyl-1H-pyrrole-3-carboxamide] | 0.05 to 0.499 | > 30 |
| Cc1c(C(=O)Nc2ccc(F)nc2)c(C)n(C)c1C(=O)C(=O)NC1(C(F)(F)F)CCOCC1 [Example 110, N-(6-fluoropyridin-3-yl)-1,2,4-trimethyl-5-(2-oxo-2-((4-(trifluoromethyl)tetrahydro-2H-pyran-4-yl)amino)acetyl)-1H-pyrrole-3-carboxamide] | < 0.05 | > 30 |
| Cc1cc(NC(=O)c2c(Cl)c(C(=O)C(=O)NC(C)(C)CO)n3c2CCC3)cnc1F [Example 575, 6-chloro-N-(6-fluoro-5-methylpyridin-3-yl)-5-(2-((1-hydroxy-2-methylpropan-2-yl)amino)-2-oxoacetyl)-2,3-dihydro-1H-pyrrolizine-7-carboxamide] | 0.5 to 1 | > 30 |
| CCn1c(C)c(C(=O)Nc2ccc(F)c(C)c2)c(C)c1C(=O)C(=O)NC(C)(C)CO [Example 98, 1-ethyl-N-(4-fluoro-3-methylphenyl)-5-(2-((1-hydroxy-2-methylpropan-2-yl)amino)-2-oxoacetyl)-2,4-dimethyl-1H-pyrrole-3-carboxamide] | < 0.05 | > 30 |
| Cc1cc(NC(=O)c2c(C)c(C(=O)C(=O)N3C4CCCC3CC(=O)C4)n(C)c2C)cnc1F [Example 193, N-(6-fluoro-5-methylpyridin-3-yl)-1,2,4-trimethyl-5-(2-oxo-2-(3-oxo-9-azabicyclo[3.3.1]nonan-9-yl)acetyl)-1H-pyrrole-3-carboxamide] | > 1 | > 30 |
| Cc1cc(NC(=O)c2cc(C(=O)C(=O)NC3(C)COC3)n3c2CCCC3)ccc1F [Example 405, N-(4-fluoro-3-metthylphenyl)-3-(2-((3-methyloxetan-3-yl)amino)-2-oxoacetyl)-5,6,7,8-tetrahydroindolizine-1-carboxamide] | 0.05 to 0.499 | > 30 |
| Cc1cc(NC(=O)c2c(C)c(C(=O)C(=O)N[C@@H](CO)C(C)(C)C)n(C)c2C)ccc1F [Example 78, (R)—N-(4-fluoro-3-methylphenyl)-5-(2-((1-hydroxy-3,3-dimethylbutan-2-yl)amino)-2-oxoacetyl)-1,2,4-trimethyl-1H-pyrrole-3-carboxamide] | < 0.05 | > 30 |
| CC[C@H](C)NC(=O)C(=O)c1c(C)c(C(=O)Nc2cnc(F)c(C)c2)c2n1CCCC2 [Example 475, (S)-3-(2-(sec-butylamino)-2-oxoacetyl)-N-(6-fluoro-5-methylpyridin-3-yl)-2-methyl-5,6,7,8-tetrahydroindolizine-1-carboxamide] | 0.5 to 1 | > 30 |
| Cc1cc(NC(=O)c2c(C)c(C(=O)C(=O)N[C@H]3CC[C@H](O)CC3)n(CCF)c2C)ccc1F [Example 198, N-(4-fluoro-3-methylphenyl)-1-(2-fluoroethyl)-5-(2-(((1r,4r)-4-hydroxycyclohexyl)amino)-2-oxoacetyl)-2,4-dimethyl-1H-pyrrole-3-carboxamide] | 0.05 to 0.499 | > 30 |
| Cc1cc(NC(=O)c2c(Cl)c(C(=O)C(=O)N[C@H]3COC[C@@H]3O)n3c2CCCC3)ccc1F [Example 505, 2-chloro-N-(4-fluoro-3-methylphenyl)-3-(2-(((3S,4R)-4-hydroxytetrahydrofuran-3-yl)amino)-2-oxoacetyl)-5,6,7,8-tetrahydroindolizine-1-carboxamide] | 0.5 to 1 | > 30 |
| Cc1c(C(=O)Nc2cccc(Cl)c2)c(C)n(C)c1C(=O)C(=O)NC(C)(C)CN1CCOCC1 [Example 601, N-(3-chlorophenyl)-1,2,4-trimethyl-5-(2-((2-methyl-1-morpholinopropan-2-yl)amino)-2-oxoacetyl)-1H-pyrrole-3-carboxamide] | < 0.05 | > 30 |
| CC(C)(C)NC(=O)C(=O)c1cc(C(=O)Nc2cc(F)cc(Cl)c2)c2n1CCCC2 [Example 395, 3-(2-(tert-butylamino)-2-oxoacetyl)-N-(3-chloro-5-fluorophenyl)-5,6,7,8-tetrahydroindolizine-1-carboxamide] | > 1 | 0.5 to 4.99 |
| Cc1nc2c(s1)C(NC(=O)C(=O)c1c(C)c(C(=O)Nc3ccc(F)c(C)c3)c(C)n1C)CCC2 (stereo not shown) [Example 355, N-(4-fluoro-3-methylphenyl)-1,2,4-trimethyl-5-(2-((2-methyl-4,5,6,7-tetrahydrobenzo[d]thiazol-7-yl)amino)-2-oxoacetyl)-1H-pyrrole-3-carboxamide] | < 0.05 | > 30 |
| Cc1cc(NC(=O)c2c(C)c(C(=O)C(=O)NOCC(F)(F)F)n(C)c2C)ccc1F [Example 157, N-(4-fluoro-3-methylphenyl)-1,2,4-trimethyl-5-(2-oxo-2-((2,2,2-trifluoroethoxy)amino)acetyl)-1H-pyrrole-3-carboxamide] | 0.05 to 0.499 | > 30 |
| Cc1cc(NC(=O)c2c(C)c(C(=O)C(=O)NC(C)(C)C)n(C)c2C)cnc1F [Example 112, 5-(2-(tert-butylamino)-2-oxoacetyl)-N-(6-fluoro-5-methylpyridin-3-yl)-1,2,4-trimethyl-1H-pyrrole-3-carboxamide] | 0.05 to 0.499 | > 30 |
| CC[C@H](CO)NC(=O)C(=O)c1c(C)c(C(=O)Nc2ccc(F)c(C)c2)c(C)n1C [Example 140, (R)-N-(4-fluoro-3-methylphenyl)-5-(2-((1-hydroxybutan-2-yl)amino)-2-oxoacetyl)-1,2,4-trimethyl-1H-pyrrole-3-carboxamide] | < 0.05 | > 30 |
| Cc1c(C(=O)Nc2ccc(F)c(Cl)c2)c(C)n(C)c1C(=O)C(=O)N[C@H]1CC[C@@H](O)CC1 [Example 251, N-(3-chloro-4-fluorophenyl)-5-(2-(((1s,4s)-4-hydroxycyclohexyl)amino)-2-oxoacetyl)-1,2,4-trimethyl-1H-pyrrole-3-carboxamide] | < 0.05 | > 30 |
| CC(C)(C)NC(=O)C(=O)c1cc(C(=O)Nc2ccc(F)c(C#N)c2)c2n1CCOC2 [Example 582, 6-(2-(tert-butylamino)-2-oxoacetyl)-N-(3-cyano-4-fluorophenyl)-3,4-dihydro-1H-pyrrolo[2,1-c][1,4]oxazine-8-carboxamide] | > 1 | > 30 |
| CC(C)(CO)NC(=O)C(=O)c1c(Cl)c(C(=O)Nc2ccc(F)c(F)c2)c2n1CCCC2 [Example 492, 2-chloro-N-(3,4-difluorophenyl)-3-(2-((1-hydroxy-2-methylpropan-2-yl)amino)-2-oxoacetyl)-5,6,7,8-tetrahydroindolizine-1-carboxamide] | < 0.05 | 5 to 30 |

Reference: patent US20190375708A1 (VenatoRx Pharmaceuticals, Inc., priority 2018, published 2019)
